Experimental data reported in US20080188530A1 (priority 2004, published 2008).
Read-outs that look alike come from different tables or passages of the source.

Legend:
Phytophthora infestans = format: in vivo; conditions: tomato plants, infected 5 days after spraying, rated after 6 days, efficacy in % of untreated control (Abbot)
[1] = tested on: Pyrenophora [syn. Drechslera] teres; test: Activity against net blotch of barley caused by Pyrenophora teres (protective spray on potted barley seedlings); format: in vivo; conditions: barley cv. Igri, inoculated 5 days after spraying, rated after 6 days, efficacy in % of untreated control (Abbot)

O=C(Nc1ccccc1-c1ccc(Cl)cc1)c1cccnc1Cl [boscalid, 2-chloro-N-(4′-chlorobiphenyl-2-yl)nicotinamide]
Observed efficacy (%) (Phytophthora infestans; 16 ppm): 0%

COCC(=O)N(c1c(C)cccc1C)C(C)C(=O)OC (racemic) [metalaxyl, methyl N-(methoxyacetyl)-N-(2,6-xylyl)-DL-alaninate]
Observed efficacy (%) ([1]; 16 ppm): 0%

CO/C=C(/C(=O)OC)c1ccccc1CO/N=C(C)/C=C/c1ccc(Cl)cc1 [enestroburin, methyl 2-{2-[3-(4-chlorophenyl)-1-methylallylideneaminooxymethyl]phenyl}-3-methoxyacrylate]
Observed efficacy (%) (Phytophthora infestans; 16 ppm): 0%
Observed efficacy (%) (Phytophthora infestans; 63 ppm): 11%
Observed efficacy (%) ([1]; 16 ppm): 44%
Observed efficacy (%) ([1]; 63 ppm): 56%
